# Experimental data published in article PMC12311259, “Antifibrotic effects of specific targeting of the 5‐hydroxytryptamine 2B receptor (5‐HT2BR) in murine models and ex vivo models of scleroderma skin” (Arthritis & Rheumatology (Hoboken, N.j.), 2025).
# Legend:
# [1] = target: T1, Adrenergic α1A (hu) (Homo sapiens, UniProt P35348); assay: Functionality assay, IP1, Eurofins Panlabs 302040; format: cell-based
# T1 construct: Eurofins Panlabs 302040
# From the text: (§1) Effects were considered significant if AM1476's mean value was three or more SDs above the vehicle control mean in the agonist assay or three or more SDs below the positive control agonist (5‐nM α‐methylserotonin) mean in the antagonist assay. AM1476 was screened for selectivity against approximately 200 targets using a Eurofins Panlabs Spectrum screen panel including enzymatic and receptor binding assays.
# [2] = target: T2, Serotonin (5-Hydroxytryptamine) 5-HT3 (hu) (Homo sapiens, UniProt P46098); assay: Receptor binding, Eurofins Panlabs 271910
# T2 construct: Eurofins Panlabs 271910
# From the text: as §1
# [3] = target: T3, Uptake, Dopamine (hu) (Homo sapiens, UniProt Q01959); assay: Functionality assay, Uptake, Eurofins Panlabs 316010; format: cell-based
# T3 construct: Eurofins Panlabs 316010
# From the text: as §1
# [4] = target: T4, Serotonin (5-Hydroxytryptamine) 5-HT1B (hu) (Homo sapiens, UniProt P28222); assay: Receptor binding, Eurofins Panlabs 271200
# T4 construct: Eurofins Panlabs 271200
# From the text: as §1
# [5] = target: T5, Adrenergic β2 (hu) (Homo sapiens, UniProt P07550); assay: Functionality assay, Adenylyl Cyclase, Eurofins Panlabs 302150; format: cell-based
# T5 construct: Eurofins Panlabs 302150
# From the text: as §1
# [6] = target: T6, Histamine H1 (hu) (Homo sapiens, UniProt P35367); assay: Functionality assay, GTPγS Binding, Eurofins Panlabs 313200; format: biochemical
# T6 construct: Eurofins Panlabs 313200
# From the text: as §1
# [7] = Pharmacokinetic profile (no method given)
# [8] = target: T7, human 5-HT2AR (Homo sapiens, UniProt P28223); assay: Functionality assay, HTRF quantification of IP1 accumulation in CHO-K1 cells; format: cell-based; settings: inhibition of 5-HT (5 nM) induced IP1 response, read-out: IC50, antagonistic activity, human 5-HT2A
# T7 construct: 355250 (IP1); host or cells: CHO-K1
# Procedure: The binding profile of AM1476 was evaluated for binding to human 5‐HT2AR, 5‐HT2BR, and 5‐HT2CR in radioligand binding assays using Chinese hamster ovary (CHO‐K1) cells overexpressing human receptors (in vitro assays 271650, 271700, and 271800; Eurofins Panlabs Discovery). AM1476 was evaluated at 0.1, 1, 10, 100, 1,000, and 10,000 nM (5‐HT2BR) or at 1, 10, 100, 1,000, and 10,000 nM (5‐HT2AR and 5‐HT2CR). Human 5‐HT2AR and 5‐HT2BR functionality was measured with homogeneous time‐resolved fluorescence quantification of IP1 accumulation in CHO‐K1 cells (in vitro assays 355250 and 355260). Compounds creating a ≥50% inhibition of 5‐HT (5 nM) induced fluorescence response specified receptor antagonist activity. 5‐HT2CR functionality was assessed with [35S] GTPγS for quantification of bound GTPγS. Compounds creating a ≥50% inhibition of 5‐HT (100 nM) induced [35S] GTPγS binding response specified receptor antagonist activity (in vitro assay 355200). AM1476 was evaluated at 0.1, 0.3, 1, 3, 10, 30, and 300 nM (5‐HT2BR) or 1, 10, 100, 1,000, and 10,000 nM (5‐HT2AR and 5‐HT2CR). […] Mouse 5‐HT2BR functionality was measured in a calcium influx assay (Charles River) in CHO‐KI cells expressing the mouse 5‐HT2BR using a calcium sensitive dye and a fluorescence imaging plate reader (FLIPRTETRA) instrument. AM1476 was evaluated at 0.3, 1, 3, 10, 30, 100, 300, and 1,000 nM.
# T5 sequence (P07550 whole entry): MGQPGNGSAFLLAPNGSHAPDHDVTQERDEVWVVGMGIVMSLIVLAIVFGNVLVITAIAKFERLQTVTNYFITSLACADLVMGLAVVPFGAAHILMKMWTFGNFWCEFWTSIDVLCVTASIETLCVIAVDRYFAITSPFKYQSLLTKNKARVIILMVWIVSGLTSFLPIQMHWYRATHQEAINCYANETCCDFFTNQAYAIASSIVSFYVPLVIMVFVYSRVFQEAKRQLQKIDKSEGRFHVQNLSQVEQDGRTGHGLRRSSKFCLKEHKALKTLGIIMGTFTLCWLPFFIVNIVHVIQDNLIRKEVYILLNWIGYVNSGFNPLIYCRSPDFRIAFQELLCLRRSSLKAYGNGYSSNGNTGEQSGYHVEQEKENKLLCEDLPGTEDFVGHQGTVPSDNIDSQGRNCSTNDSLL
# T6 sequence (P35367 whole entry): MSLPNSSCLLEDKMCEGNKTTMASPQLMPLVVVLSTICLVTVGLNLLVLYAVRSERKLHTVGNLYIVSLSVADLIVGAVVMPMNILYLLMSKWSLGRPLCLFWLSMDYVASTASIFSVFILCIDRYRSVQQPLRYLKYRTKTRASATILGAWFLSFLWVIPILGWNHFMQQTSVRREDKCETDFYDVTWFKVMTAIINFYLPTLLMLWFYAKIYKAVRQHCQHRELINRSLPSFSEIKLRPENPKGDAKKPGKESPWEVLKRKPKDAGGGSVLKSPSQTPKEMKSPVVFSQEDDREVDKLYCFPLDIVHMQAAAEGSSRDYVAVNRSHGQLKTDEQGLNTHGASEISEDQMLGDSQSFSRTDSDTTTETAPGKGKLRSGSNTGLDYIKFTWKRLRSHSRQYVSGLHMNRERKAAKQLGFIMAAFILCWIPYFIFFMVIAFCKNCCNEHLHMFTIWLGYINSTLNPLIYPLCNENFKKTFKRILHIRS
# T1 sequence (P35348 whole entry): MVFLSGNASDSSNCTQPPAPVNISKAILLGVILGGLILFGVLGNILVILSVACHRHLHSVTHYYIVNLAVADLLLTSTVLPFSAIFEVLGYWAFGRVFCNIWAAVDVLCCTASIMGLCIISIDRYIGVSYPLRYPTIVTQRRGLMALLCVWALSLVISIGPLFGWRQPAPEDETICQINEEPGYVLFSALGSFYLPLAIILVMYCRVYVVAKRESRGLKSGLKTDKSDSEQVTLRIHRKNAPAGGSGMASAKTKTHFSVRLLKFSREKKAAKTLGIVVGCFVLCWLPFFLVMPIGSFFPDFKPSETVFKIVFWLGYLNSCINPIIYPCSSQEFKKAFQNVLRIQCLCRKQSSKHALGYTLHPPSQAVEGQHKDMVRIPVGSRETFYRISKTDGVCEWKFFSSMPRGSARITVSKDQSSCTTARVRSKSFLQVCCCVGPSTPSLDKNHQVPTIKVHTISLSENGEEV
# T4 sequence (P28222 whole entry): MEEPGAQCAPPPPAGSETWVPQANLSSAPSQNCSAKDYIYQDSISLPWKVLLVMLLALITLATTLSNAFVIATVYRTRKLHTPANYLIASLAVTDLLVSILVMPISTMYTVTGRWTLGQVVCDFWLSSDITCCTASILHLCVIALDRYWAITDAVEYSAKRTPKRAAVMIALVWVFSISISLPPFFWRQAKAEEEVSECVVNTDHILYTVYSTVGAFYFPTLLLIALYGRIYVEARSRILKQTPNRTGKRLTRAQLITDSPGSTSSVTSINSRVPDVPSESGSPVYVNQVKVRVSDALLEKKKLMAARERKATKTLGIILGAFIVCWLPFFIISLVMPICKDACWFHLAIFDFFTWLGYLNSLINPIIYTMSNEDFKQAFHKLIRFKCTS
# T2 sequence (P46098 24-478): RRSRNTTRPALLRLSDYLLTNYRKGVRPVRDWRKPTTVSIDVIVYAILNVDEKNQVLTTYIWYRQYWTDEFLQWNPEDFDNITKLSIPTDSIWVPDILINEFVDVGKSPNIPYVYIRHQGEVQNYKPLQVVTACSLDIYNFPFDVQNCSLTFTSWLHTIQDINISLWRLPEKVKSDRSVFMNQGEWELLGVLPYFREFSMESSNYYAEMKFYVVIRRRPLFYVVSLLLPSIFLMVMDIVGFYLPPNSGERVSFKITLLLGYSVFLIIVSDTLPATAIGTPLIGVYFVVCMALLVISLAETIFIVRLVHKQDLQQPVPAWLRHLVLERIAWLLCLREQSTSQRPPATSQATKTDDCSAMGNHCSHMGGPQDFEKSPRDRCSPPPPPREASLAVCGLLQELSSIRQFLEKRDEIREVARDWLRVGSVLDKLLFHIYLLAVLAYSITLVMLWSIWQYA
# T7 sequence (P28223 whole entry): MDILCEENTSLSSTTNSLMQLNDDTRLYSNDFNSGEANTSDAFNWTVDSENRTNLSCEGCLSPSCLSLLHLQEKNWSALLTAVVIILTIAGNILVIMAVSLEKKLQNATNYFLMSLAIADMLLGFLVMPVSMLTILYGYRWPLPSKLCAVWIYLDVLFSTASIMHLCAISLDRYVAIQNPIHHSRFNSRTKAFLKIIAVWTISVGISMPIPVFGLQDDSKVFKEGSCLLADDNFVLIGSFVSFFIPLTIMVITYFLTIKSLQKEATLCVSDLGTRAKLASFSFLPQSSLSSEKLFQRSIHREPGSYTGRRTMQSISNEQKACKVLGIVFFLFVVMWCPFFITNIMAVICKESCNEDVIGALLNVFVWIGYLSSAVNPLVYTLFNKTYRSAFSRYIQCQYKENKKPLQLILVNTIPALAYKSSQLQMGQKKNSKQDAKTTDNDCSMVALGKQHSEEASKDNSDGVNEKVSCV
# T3 sequence (Q01959 whole entry): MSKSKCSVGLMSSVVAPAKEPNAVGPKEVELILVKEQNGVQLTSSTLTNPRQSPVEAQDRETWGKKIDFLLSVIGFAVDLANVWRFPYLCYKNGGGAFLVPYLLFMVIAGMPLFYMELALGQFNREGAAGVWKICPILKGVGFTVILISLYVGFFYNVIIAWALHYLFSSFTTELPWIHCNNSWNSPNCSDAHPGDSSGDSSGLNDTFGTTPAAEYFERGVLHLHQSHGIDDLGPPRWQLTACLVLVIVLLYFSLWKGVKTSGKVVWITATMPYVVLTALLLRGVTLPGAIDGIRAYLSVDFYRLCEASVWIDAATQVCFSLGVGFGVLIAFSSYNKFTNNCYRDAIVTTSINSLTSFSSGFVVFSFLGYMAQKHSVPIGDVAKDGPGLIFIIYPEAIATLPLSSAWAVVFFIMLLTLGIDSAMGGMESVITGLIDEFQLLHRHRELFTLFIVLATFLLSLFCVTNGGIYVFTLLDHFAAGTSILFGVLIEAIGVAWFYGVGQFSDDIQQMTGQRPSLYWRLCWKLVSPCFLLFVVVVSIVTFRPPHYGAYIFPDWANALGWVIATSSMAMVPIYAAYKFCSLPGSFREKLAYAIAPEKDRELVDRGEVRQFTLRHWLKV
smiles,measurement,setting,value
C[C@@H]1CN(C(=N)N)N=C1c1ccc(F)cc1O [AM1476],IC50,[1],4.34 µM
same,"agonistic activity, Adrenergic α1A",[1]; at 300 µM,No significant agonistic activity at 300 µM
same,"% Inhibition at 10 µM, 5-HT3 (hu)",[2],14%
same,IC50,[3],> 30 µM
same,"% Inhibition at 10 µM, 5-HT1B (hu)",[4],19%
same,IC50,[5],154 µM
same,"agonistic activity, Adrenergic β2",[5]; at 300 µM,No significant agonistic activity at 300 µM
same,IC50,[6],28 µM
same,"agonistic activity, Histamine H1",[6]; at 30 µM,No significant agonistic activity at 30 µM
same,distribution to the brain,[7],no preference to distribute to the brain
same,oral bioavailability,[7],orally bioavailable
same,IC50,[8],> 10 µM
